Earlier results in patent publication US7892575B2, “Orodispersible pharmaceutical composition for oromucosal or sublingual administration of agomelatine” (Les Laboratoires Servier, priority 2005, dated 2011).

Conditions: humans

- bioavailability by the oral route in relation to the parenteral route: very low
SMILES: COc1ccc2cccc(CCNC(C)=O)c2c1 [agomelatine, N-[2-(7-methoxy-1-naphthyl)ethyl]acetamide]
